The test system of assay [1] is Blood Pressure of Anesthetized Rats. The assay is described as follows: Blood pressure bioassay in urethane-anesthetized rats, peptides injected intravenously. Type of assay: in vivo, male Sprague-Dawley rats. Also noted: key to Duration of blood pressure effect: +: short-lasting blood pressure elevation at all doses; ++: short-lasting blood pressure elevation at low doses; +++: long-lasting elevation at low doses. As to conditions: i.v.; for Maximal increase in blood pressure mm Hg diastolic / Maximal increase in blood pressure mm Hg systolic: over the dose-range tested (nmol/kg). The method, then: Bioassays were conducted on male Sprague-Dawley rats, weighing 250-450 g, and anesthetized by an intraperitoneal injection of a 25 percent urethane solution (1.25 g/kg). The left femoral artery was cannulated with PE 50 polyethylene tubing for monitoring of blood pressure with a pressure transducer RP-1500 (Narco Biosystems). Injections of peptides or drugs were made via a PE 10 tubing into the left femoral vein. Respiration was measured by an impedance method by which the respiratory movements of the chest are registered. The method gives indirect information on respiration amplitude. Heart and respiration frequency were obtained by using biotachometer couplers which measure mean frequencies. Body temperature was measured in the rectum with a thermistor (Yellow Springs Instruments) and maintained between 36.5° and 37.5° C. Peptides or drugs were dissolved in sterile H2 O and the volumes injected intravenously were usually 0.1 ml and never exceeded 0.2 ml.

For assay [2], the system named is pressor activity of FMRF-NH2 in urethane-anesthetized rats. The assay is described as follows: Pressor activity of FMRF-NH2 after pretreatment with vasodepressor drugs and pharmacologic antagonists. It is filed as in vivo. To be noted: for Effect of drug pretreatment on pressor activity of FMRF-NH2: FMRF-NH2 challenge 16, 128, 512 nmol/kg i.v. 5-10 minutes after drug pretreatment; for Attenuation of the FMRFamide pressor effect: FMRF-NH2 challenge 16, 128, 512 nmol/kg i.v. after pretreatment with drugs interacting with the α-adrenergic system; for Effect of lower doses of drug on FMRFamide pressor effect: effective at blocking norepinephrine hydrochloride 3 to 15 μg/kg.

The subject of assay [3] is pressor effects of angiotensin II, Arg^8 -vasopressin, norepinephrine hydrochloride. The assay is described as follows: Effectiveness of the antagonists against their respective pressor agonists. Type of assay: in vivo, rats. To be noted: for Blocking of the pressor effects of norepinephrine hydrochloride: lower doses of drug, norepinephrine hydrochloride 3 to 15 μg/kg.

Where a name gives a salt, the structure may show the parent alone.

With `N[C@@H](Cc1ccccc1)C(=O)O` [F-- OH, phenylalanine], in assay [1], the “Pressor activity (blood pressure elevation), in words” value (from here on “Pressor activity … in words”) was “Neither arginine nor phenylalanine nor phenylalanine-amide were active”; the “Maximal increase in blood pressure mm Hg diastolic” value is 0 mm Hg; the “Maximal increase in blood pressure mm Hg systolic” value came out at 0 mm Hg.

On to `NC(=O)[C@@H](N)Cc1ccccc1` [F--NH2, phenylalanine-amide], for which, in assay [1], the “Pressor activity … in words” value was “Neither arginine nor phenylalanine nor phenylalanine-amide were active”; the “Maximal increase in blood pressure mm Hg diastolic” value came to 0 mm Hg; the “Maximal increase in blood pressure mm Hg systolic” value was 0 mm Hg.

As for `CC(COc1ccccc1)N(CCCl)Cc1ccccc1` (stereo not drawn) [Phenoxybenzamine hydrochloride], the “Effect of drug pretreatment on pressor activity of FMRF-NH2” value (“Effect of drug pretreatment” for short) in assay [2] is “no effect”.

For `N=C(N)NCCC[C@H](N)C(=O)O` [R--OH, arginine], in assay [1], the “Pressor activity … in words” value is on record as “Neither arginine nor phenylalanine nor phenylalanine-amide were active”; the “Maximal increase in blood pressure mm Hg diastolic” value was 0 mm Hg; the “Maximal increase in blood pressure mm Hg systolic” value was 0 mm Hg.

With `CN1[C@@H]2CC[C@H]1C[C@@H](OC(=O)C(CO)c1ccccc1)C2` (stereo partly drawn) [atropine], the “Effect of drug pretreatment” value in assay [2] is given as “did not modify”.

Turning to `Clc1cccc(Cl)c1N=C1NCCN1` [clonidine hydrochloride], in assay [2], the “Attenuation of the FMRFamide pressor effect” value (“Attenuation” for short) was 30-75%.

`CN1CCC(=C2c3ccccc3C=Cc3ccccc32)CC1` [cyproheptadine]: the “Effect of drug pretreatment” value in assay [2] is “did not modify”.

`CN1C[C@H](C(=O)N[C@]2(C)O[C@@]3(O)[C@@H]4CCCN4C(=O)[C@H](Cc4ccccc4)N3C2=O)C[C@@H]2c3cccc4[nH]cc(c34)C[C@H]21` [dihydroergotamine mesylate]: the “Attenuation” value in assay [2] is on record as 30-75%.

In the case of `C[N+](C)(C)CCCCCC[N+](C)(C)C` [hexamethonium bromide], the “Effect of drug pretreatment” value in assay [2] is given as “not blocked”.

Consider `C=CCN1CC[C@]23c4c5ccc(O)c4O[C@H]2C(=O)CC[C@@]3(O)[C@H]1C5.Cl` [nalozone hydrochloride], for which, in assay [2], the “Effect of drug pretreatment” value is recorded as “did not modify”.

In the case of `Cc1ccc(N(CC2=NCCN2)c2cccc(O)c2)cc1` [phentolamine hydrochloride], in assay [3], the “Blocking of the pressor effects of norepinephrine hydrochloride” value is reported as “effective at blocking”. In addition, in assay [2], the “Attenuation” value is reported as 30-75% and the “Effect of lower doses of drug on FMRFamide pressor effect” value was “did not affect”.

As to `CCCO` [propanol hydrochloride], in assay [2], the “Effect of drug pretreatment” value is reported as “not blocked”.

Turning to `COC(=O)[C@H]1[C@H]2C[C@@H]3c4[nH]c5cc(OC)ccc5c4CCN3C[C@H]2C[C@@H](OC(=O)c2cc(OC)c(OC)c(OC)c2)[C@@H]1OC` [reserpine], in assay [2], the “Effect of drug pretreatment” value was “did not modify”.

Consider `CNCC(=O)N[C@@H](CCCN=C(N)N)C(=O)N[C@H](C(=O)N[C@@H](Cc1ccc(O)cc1)C(=O)N[C@H](C(=O)N[C@@H](Cc1cnc[nH]1)C(=O)N1CCC[C@H]1C(=O)N[C@@H](C)C(=O)O)C(C)C)C(C)C` [saralasin], for which the “Antagonism of angiotensin II” value in assay [3] (agonist angiotensin II 2 μg/kg) is on record as “effective antagonists”. For the same compound, in assay [2], the “Effect of drug pretreatment” value is “not blocked”.

As for `c1ccc(CC2=NCCN2)cc1` [tolazoline hydrochloride], in assay [3], the “Blocking of the pressor effects of norepinephrine hydrochloride” value is listed as “effective at blocking”. Moreover, in assay [2], the “Attenuation” value is given as 30-75% and the “Effect of lower doses of drug on FMRFamide pressor effect” value is on record as “did not affect”.

For “(1-(β-mercapto-β,β-cyclopentamethylene propionic acid), 2-(0-methyl)tyrosine)Arg^8 -Vasopressin”, in assay [3] (agonist Arg^8 -vasopressin 1 μg/kg), the “Antagonism of Arg^8 -vasopressin” value is recorded as “effective antagonists”. Besides, the “Effect of drug pretreatment” value in assay [2] is recorded as “not blocked”.

As to “gamma 1-melanotropic stimulating hormone [q MSH]”, in assay [1], the “Duration of blood pressure effect” value was “+++”; the “Pressor activity … in words” value was “exhibits pressor activity”; the “Maximal increase in blood pressure mm Hg diastolic” value came to 70 mm Hg; the “Maximal increase in blood pressure mm Hg systolic” value is 90 mm Hg.

As to nitroprusside, the “Effect of drug pretreatment” value in assay [2] is recorded as “did not modify”.
